Several values for one entry are separate records, joined by “and”; a condition that tells them apart may be missing. Equal values may be shown once. Read-outs that look alike come from different tables or passages of the source.
How the values were obtained:
[1] = molecular target: T1, HDAC1 (Homo sapiens (Human), UniProt Q13547); assay: Binding constant from HDAC1 inactivation kinetics
Description: (§1) HDAC1 inactivation kinetic constant was determined by curve-fitting of the plot to a first-order rate equation.

[2] = molecular target: T1, HDAC1; assay: Caliper HDAC enzymatic endpoint assay, HDAC1; assay type: biochemical
Description: (§2) Substrate A was prepared as 2 mM in DMSO. Its final concentration in the assay for HDACs 1, 2, 3, 6 is 2 μM.
(§3) Below is the HDAC and Substrate concentration used in this assay.

[3] = molecular target: HDAC2 (Homo sapiens (Human), UniProt Q92769); assay: Caliper HDAC enzymatic endpoint assay, HDAC2; assay type: biochemical
Sequence of HDAC2 (Q92769 whole entry): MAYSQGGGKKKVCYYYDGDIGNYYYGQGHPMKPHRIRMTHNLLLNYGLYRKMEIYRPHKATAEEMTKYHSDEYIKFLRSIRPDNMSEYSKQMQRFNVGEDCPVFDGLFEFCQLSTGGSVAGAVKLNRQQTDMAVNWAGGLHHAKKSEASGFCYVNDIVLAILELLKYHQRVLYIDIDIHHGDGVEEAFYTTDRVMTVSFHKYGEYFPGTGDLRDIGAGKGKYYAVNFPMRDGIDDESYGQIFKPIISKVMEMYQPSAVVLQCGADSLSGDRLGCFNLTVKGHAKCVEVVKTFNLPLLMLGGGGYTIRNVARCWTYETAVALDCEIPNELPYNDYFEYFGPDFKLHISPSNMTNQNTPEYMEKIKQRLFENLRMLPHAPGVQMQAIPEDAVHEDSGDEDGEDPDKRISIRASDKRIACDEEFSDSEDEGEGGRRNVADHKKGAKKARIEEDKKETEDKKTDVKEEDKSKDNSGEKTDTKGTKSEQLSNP
Description: as §2, §3

[4] = molecular target: HDAC4 (Homo sapiens (Human), UniProt P56524); assay: Caliper HDAC enzymatic endpoint assay, HDAC4; assay type: biochemical; conditions: Table 2C; read-out: HDAC4 IC50 after 0 hr preincubation
Sequence of HDAC4 (P56524 whole entry): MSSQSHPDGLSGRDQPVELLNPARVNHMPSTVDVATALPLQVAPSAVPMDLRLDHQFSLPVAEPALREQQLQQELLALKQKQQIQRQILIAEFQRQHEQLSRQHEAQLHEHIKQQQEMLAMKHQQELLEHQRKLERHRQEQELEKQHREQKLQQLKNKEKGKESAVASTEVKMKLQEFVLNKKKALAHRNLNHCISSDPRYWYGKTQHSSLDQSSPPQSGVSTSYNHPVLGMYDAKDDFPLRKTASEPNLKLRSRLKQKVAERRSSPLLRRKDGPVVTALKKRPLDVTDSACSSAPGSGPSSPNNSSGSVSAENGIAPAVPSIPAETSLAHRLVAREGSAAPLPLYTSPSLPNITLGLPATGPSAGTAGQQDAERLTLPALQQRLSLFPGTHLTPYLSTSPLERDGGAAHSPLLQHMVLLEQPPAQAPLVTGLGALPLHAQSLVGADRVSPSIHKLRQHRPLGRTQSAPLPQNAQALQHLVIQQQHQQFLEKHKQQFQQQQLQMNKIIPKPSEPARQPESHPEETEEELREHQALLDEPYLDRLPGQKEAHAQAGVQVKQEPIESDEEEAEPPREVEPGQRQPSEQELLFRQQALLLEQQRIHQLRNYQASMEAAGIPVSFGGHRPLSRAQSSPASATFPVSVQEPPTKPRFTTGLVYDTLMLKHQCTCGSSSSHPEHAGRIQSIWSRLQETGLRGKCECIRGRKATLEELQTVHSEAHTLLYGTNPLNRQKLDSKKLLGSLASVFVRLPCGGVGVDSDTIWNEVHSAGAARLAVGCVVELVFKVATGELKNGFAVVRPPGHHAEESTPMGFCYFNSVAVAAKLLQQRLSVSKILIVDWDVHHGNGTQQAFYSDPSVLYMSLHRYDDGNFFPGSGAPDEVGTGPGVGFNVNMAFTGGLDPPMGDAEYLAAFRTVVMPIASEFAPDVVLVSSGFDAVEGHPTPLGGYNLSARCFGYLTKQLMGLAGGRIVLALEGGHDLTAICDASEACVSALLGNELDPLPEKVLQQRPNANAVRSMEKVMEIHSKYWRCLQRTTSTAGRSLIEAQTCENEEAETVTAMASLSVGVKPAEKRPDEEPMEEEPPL
Description: The Caliper HDAC Assay Buffer (acronym HAB, 1 liter) was prepared as follows:
Substrate B was prepared as 2 mM in 100% DMSO. Its final concentration in the assay for HDACs 4, 5, 7, 8, 9 is 2 μM.
LBH was used as quench inhibitor to stop the reaction at the end point.
IC50 values are in micromolar.

[5] = system: INS-1E cells; assay: Palmitate and/or glucose-induced beta-cell apoptosis, caspase-3/7 activation; assay type: cell-based, rat; conditions: 0.5 mM palmitate and/or 25 mM glucose, 48 hours
Description: Compounds of the invention were evaluated for their ability to suppress cytokine-induced beta-cell apoptosis and palmitate and/or glucose-induced beta-cell apoptosis by inhibition of HDAC3. Assay protocols were as follows: Cell culture and reagents. […] Recombinant IL-1β, IFN-γ, and TNF-α were purchased from R&D Systems. Palmitate, D-glucose and fatty acids-free low endotoxin BSA were purchased from Sigma. Palmitate was solubilized in 90% ethanol, heated to 60° C. and used 1:100 dilution in media. Caspase-Glo 3/7 was from Promega and 3-(4,5-dimethylthiazol-2-yl)-2,5-diphenyltetrazolium bromide (MTT) was from Calbiochem. Antibodies for HDAC1, HDAC2, HDAC3, pJNK, JNK cleaved caspase-9 and secondary horseradish-peroxidase conjugated goat anti-mouse and anti-rabbit antibodies were from Cell Signaling. Antibody for beta-actin was from Sigma and antibody against CHOP (GADD153) from Abcam. HDAC inhibitors were purchased from Selleck Chemicals or synthesized in-house. Primers were from Integrated DNA Technologies, High Capacity cDNA RT kit and SYBR green master mix were purchased from Applied Biosystems. […] Luminescence was measured after a two-hour incubation using an Envision plate reader (PerkinElmer). […] Apoptosis was measured by caspase-3/7 activation using a commercially available kit. […]

[6] = system: INS-1E cells; assay: Insulin gene Ins1 and Ins2 expression by qPCR; assay type: cell-based, rat; conditions: 10 μM, glucolipotoxicity, 24 h
Description: INS-1E cells (one million/well) were seeded in 6-well plates in 2 mL complete medium. After two days, medium was removed and cells were exposed to 2 mL medium/well with the indicated concentrations of palmitate, glucose, HDAC inhibitors and/or vehicle. RNA was purified (Qiagen) and cDNA synthesis performed done according to manufacturers' guidelines (Applied Biosystems) and real-time PCR performed using the SYBR green method (Applied Biosystems). Each cDNA sample in triplicate was subjected to two individual PCR amplifications either for the gene of interest or the reference gene β-actin. See table below for primer sequences. Compounds of the invention counteract glucolipotoxic reductions in insulin gene […] and […] expression. […] The gene expression in FIGS. 13A and 13B were analyzed by qPCR. […] Glucose-stimulated insulin secretion and total insulin content were assessed by ELISA. Data are presented as fold to CTRL+SEM, n=3-5, ns=not significant, *p<0.05, **p<0.01, ***p<0.001 vs. CTRL, #p<0.05, ##p<0.01, ###p<0.001 vs. respective treatment. ANOVA with Tukey- or Dunnet-corrected test, or Student's t-test (insulin content).

[7] = molecular target: T1, HDAC1; assay: Kinetics of the inhibition of HDAC1; conditions: for T1/2: HDAC1 residence
Description: as §1

[8] = molecular target: HDAC3 (Homo sapiens (Human), UniProt O15379); assay: Kinetics of the inhibition of HDAC3
Sequence of HDAC3 (O15379 whole entry, canonical isoform): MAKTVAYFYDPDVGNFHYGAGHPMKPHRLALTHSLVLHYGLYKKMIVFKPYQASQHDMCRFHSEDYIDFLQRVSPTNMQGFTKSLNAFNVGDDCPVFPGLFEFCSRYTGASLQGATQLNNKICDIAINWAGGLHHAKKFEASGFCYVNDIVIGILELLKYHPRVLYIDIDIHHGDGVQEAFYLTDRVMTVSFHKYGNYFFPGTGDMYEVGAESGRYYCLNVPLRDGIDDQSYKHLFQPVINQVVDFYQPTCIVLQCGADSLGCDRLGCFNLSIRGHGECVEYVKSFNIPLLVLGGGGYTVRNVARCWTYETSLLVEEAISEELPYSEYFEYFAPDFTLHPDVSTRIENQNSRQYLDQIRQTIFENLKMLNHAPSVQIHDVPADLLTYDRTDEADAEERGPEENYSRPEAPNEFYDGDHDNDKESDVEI
Sequence of HDAC3 (Q9Y618 395-489 partner): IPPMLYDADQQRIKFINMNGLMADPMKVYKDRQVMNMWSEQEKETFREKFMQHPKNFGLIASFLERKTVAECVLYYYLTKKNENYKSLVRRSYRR

[9] = system: HDACs 1, 2, 3, 4, 5, 6, 7, 8, and 9; assay: HDAC selectivity panel (Caliper), isoform selectivity; conditions: from IC50 values

T1 sequence (Q13547 whole entry): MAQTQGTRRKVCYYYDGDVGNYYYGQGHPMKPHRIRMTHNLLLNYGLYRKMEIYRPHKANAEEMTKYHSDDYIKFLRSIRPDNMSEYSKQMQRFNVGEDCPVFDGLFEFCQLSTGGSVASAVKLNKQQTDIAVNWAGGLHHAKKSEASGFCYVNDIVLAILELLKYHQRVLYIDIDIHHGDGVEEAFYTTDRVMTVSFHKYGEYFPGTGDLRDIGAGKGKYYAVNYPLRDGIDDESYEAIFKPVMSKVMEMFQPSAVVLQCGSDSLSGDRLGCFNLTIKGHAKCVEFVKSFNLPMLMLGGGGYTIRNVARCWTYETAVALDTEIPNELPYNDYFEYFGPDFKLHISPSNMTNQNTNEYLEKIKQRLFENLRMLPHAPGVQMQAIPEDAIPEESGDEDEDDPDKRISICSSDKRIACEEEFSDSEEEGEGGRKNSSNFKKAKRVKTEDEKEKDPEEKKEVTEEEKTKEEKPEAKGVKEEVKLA

CC(=O)Nc1ccc(C(=O)Nc2ccc(F)cc2N)cc1 [Compound 1, 4-acetamido-N-(2-amino-4-fluorophenyl)benzamide]
KI (inactivation) ([1]; HDAC1, values marked *, read-out: Ki (binding constant derived from HDAC1 inactivation kinetics)): 5100 nM | Kd ([1]; from Kinactivation vs concentration, read-out: Kd of HDAC1-Compound 1 complex): 5100 nM | IC50 ([2]; read-out: HDAC1 IC50 3 h Prein, Table 2, 3 h preincubation): 1250 nM | IC50 ([2]; read-out: HDAC1 IC50 3 h Preinc, Table 2A, 3 h preincubation): 1250 nM | IC50 ([2]; read-out: HDAC1 IC50 @3 hr, 3 hr preincubation): 1250 nM | IC50 ([3]; read-out: HDAC2 IC50 3 h Prein, Table 2, 3 h preincubation): 1420 nM | IC50 ([3]; read-out: HDAC2 IC50 3 h Preinc, Table 2A, 3 h preincubation): 1420 nM | IC50 ([3]; read-out: HDAC2 IC50 @3 hr, 3 hr preincubation): 1420 nM | IC50 [4]: > 33000 nM | suppression of palmitate and/or glucose-induced beta-cell apoptosis (caspase activity) [5]: as effective at suppressing palmitate and/or glucose-induced beta-cell apoptosis as CI-994 | insulin gene Ins1 expression [6]: partially restoring insulin gene Ins1 expression | insulin gene Ins2 expression [6]: partially restoring insulin gene Ins2 expression | koff [7]: ~0.0045 s⁻¹ | Kon ([7]; HDAC1): ~0.020 min^−1, uM^−1 | koff ([7]; HDAC1): ~0.0045 s⁻¹ | type of binding to HDAC1 (words) ([7]; HDAC1): fast off inhibitor | type of binding to HDAC1 (words) ([7]; HDAC1, listed as compound 1): slow on/fast off rates | T1/2 [7]: ~2.5 min | T1/2 ([7]; listed as compound 1): 2.5 min | Ki ([7]; Ki, HDAC1, inhibition kinetics): ~14000 nM and 14000 nM | koff [8]: 0.000147 s⁻¹ | Ki ([8]; HDAC3): 29 nM | Kon ([8]; HDAC3): 0.30 min^−1, uM^−1 and 0.3 min^−1, uM^−1 | koff ([8]; HDAC3): 0.000147 s⁻¹ | type of binding to HDAC3 (words) ([8]; HDAC3): slow, tight-binding inhibitor | type of binding to HDAC3 (words) ([8]; HDAC3, listed as compound 1): fast on/slow off binding | T1/2 ([8]; HDAC3 residence): 79 min | binding selectivity (Ki) for HDAC3 versus HDAC1 ([8]; thermodynamic (Ki)): 175 fold | binding selectivity (Ki) for HDAC3 versus HDAC2 ([8]; thermodynamic (Ki)): 217 fold | HDAC isoform selectivity [9]: HDAC3 selective compound
